Laboratory results published in patent publication US7244760B2, “Methods for preparation and use of psorospermin analogs” (Board of Regents, The University of Texas System, priority 2001, dated 2007).
Entries after “also recorded” stand apart in the source; their conditions may differ. Like-named read-outs stand apart in the source and are kept apart here.

How the values were obtained:
MCF7 (breast) = test: Microcytoxicity assay (SRB), MCF7; assay type: cell-based, human; details: for In vitro cytotoxic potency: 4 days, SRB
From the text: (§1) (i) Human tumor cell lines. Human tumor cell lines representative of major forms of human cancer for use in the microcytoxicity assay include MCF7 (breast), SW480 (colon), HL-60 (promyelocytic leukemia), MiaPaCa-2 (pancreatic), U937 (histiocytic lymphoma), and 8226 (myeloma) (see Table 5). One drug resistant variant of 8226 was also included: 8226/DOX40, an mdr-1-mediated drug resistant cell line. Other matched pairs may also be added. All lines have known karyotypes that are checked at least annually for quality control.
(§2) Cells were grown in suspension in RPMI 1640 medium supplemented with 5% fetal bovine serum, 1% (v/v) penicillin (100 unit/ml), streptomycin (100 μg/ml), and 1% (v/v) L-glutamine (all from GIBCO, Grand Island, N.Y.) at 37° C. in 5% CO2, 95% air atmosphere, and were passaged once every six days. Additionally, these lines are capable of in vivo growth in SCID mice for in vivo confirmatory studies. In initial experiments, two diastereomeric pairs of (±)-psorospermin methyl ethers in a series of cell lines were evaluated.
(§3) (ii) Microcytoxicity assay. A standard 96-well microcytoxicity assay is performed by plating each cell line in a microtiter plate at 4,000-10,000 cells per well (depending on cell doubling time), six replicate wells per drug dose. All plates are incubated for 4 days at 37° C. in a humidified tissue culture incubator containing 5% CO2 in air. The endpoint determination uses sulforhodamine blue (SRB) and spectrophotometric determination of protein content of each well as reflected by SRB staining. IC50 values were calculated by linear regression analysis.

SW480 (colon) = test: Microcytoxicity assay (SRB), SW480; assay type: cell-based, human; details: 4 days
From the text: as §1, §2
(§4) (ii) Microcytoxicity assay. A standard 96-well microcytoxicity assay is performed by plating each cell line in a microtiter plate at 4,000-10,000 cells per well (depending on cell doubling time), six replicate wells per drug dose. […] IC50 values were calculated by linear regression analysis.

MiaPaCa-2 (pancreatic) = test: Microcytoxicity assay (SRB), MiaPaCa-2; assay type: cell-based, human; details: for In vitro cytotoxic potency: MiaPaCa-2, 4 days, SRB
From the text: as §1, §2, §3

8226 (myeloma) = test: Microcytoxicity assay (SRB), 8226; assay type: cell-based, human; details: 4 days
From the text: as §1, §2, §4

[1] = tested on: 8226/DOX40, an mdr-1-mediated drug resistant cell line; test: Microcytoxicity assay (SRB), 8226/DOX40; assay type: cell-based, human; details: 4 days
From the text: as §1, §2, §4

[2] = tested on: HL-60 (promyelocytic leukemia); test: Microcytoxicity assay (SRB), HL-60; assay type: cell-based, human
From the text: as §1, §2, §3

topoisomerase II = topoisomerase II (Drosophila melanogaster, UniProt P15348); test: Topoisomerase II-mediated DNA cleavage; assay type: biochemical
Procedure: (§5) In the absence of psorospermin, the intensity of the topoisomerase II-mediated DNA cleavage is much less at site B than at site A. As the concentration of psorospermin was increased, the topoisomerase II-mediated DNA cleavage at site A was decreased, while the cleavage at site B was enhanced. The psorospermin-induced DNA cleavage by topoisomerase II reaches a maximum of 3-fold at a 10 μM drug concentration (FIG. 4). […] On the other hand, the cleaved complex formation at site A was reduced in the presence of psorospermin, despite the 3-fold enhancement of psorospermin alkylation at site A.
(§6) Sites A and B are three base pairs apart from each other, and Drosophila topoisomerase II binds a region of approximately 23 base pairs, based on the results of a DNase I footprinting experiment (Lee et al, 1989). Therefore, it is likely that sites A and B are competing with each other for topoisomerase II binding, and the 25-fold enhancement of the psorospermin alkylation at site B dominates this competition. FIG. 5 summarizes the three possible biochemical consequences of the site-directed alkylation of DNA by psorospermin. Because psorospermin is a 7-alkyl adduct, depurination occurs slowly at room temperature over a period of several days.

[3] = target: topoisomerase II-DNA complex (Drosophila melanogaster, UniProt P15348); test: Topoisomerase II site-directed alkylation of DNA; assay type: biochemical; details: in the presence of topoisomerase II
Procedure: as §5, §6

P388 mouse leukemia = details: cited from earlier work
various tumor cell lines = details: cited from earlier work
[4] = tested on: U937 (histiocytic lymphoma); test: Microcytoxicity assay (SRB), U937; assay type: cell-based, human; details: 4 days
From the text: as §1, §2, §4

[5] = tested on: HL60/AR (adriamycin resistant); test: Microcytoxicity assay (SRB), HL60/AR; assay type: cell-based, human; details: Acute promyelocytic leukemia
Procedure: as §2, §3

[6] = tested on: Acute promyelocytic leukemia; test: Microcytoxicity assay (SRB), cell line not given; assay type: cell-based, human; details: cell line cell empty; origin Acute promyelocytic leukemia
Procedure: as §2, §3

K562 = test: Microcytoxicity assay (SRB), K562; assay type: cell-based, human; details: Chronic myelogenous leukemia
Procedure: as §2, §3

[7] = tested on: K562/R (daunorubicin resistant); test: Microcytoxicity assay (SRB), K562/R; assay type: cell-based, human; details: Chronic myelogenous leukemia
Procedure: as §2, §3

A2780 = test: Microcytoxicity assay (SRB), A2780; assay type: cell-based, human; details: Ovarian
Procedure: as §2, §3

[8] = tested on: A2780/CP70 (cisplatin resistant); test: Microcytoxicity assay (SRB), A2780/CP70; assay type: cell-based, human; details: Ovarian
Procedure: as §2, §3

MCF 10A = test: Microcytoxicity assay (SRB), MCF 10A; assay type: cell-based; details: Breast, normal mammary
Procedure: as §2, §3

DU 145 = test: Microcytoxicity assay (SRB), DU 145; assay type: cell-based, human
Procedure: as §2, §3

LnCAP = test: Microcytoxicity assay (SRB), LnCAP; assay type: cell-based, human; details: Prostate, lymph node mets
Procedure: as §2, §3

PEAZ-1 = test: Microcytoxicity assay (SRB), PEAZ-1; assay type: cell-based, human; details: Prostate, primary
Procedure: as §2, §3

PC-3 = test: Microcytoxicity assay (SRB), PC-3; assay type: cell-based, human; details: Prostate, adenocarcinoma, mets
Procedure: as §2, §3

PC-3N = test: Microcytoxicity assay (SRB), PC-3N; assay type: cell-based, human; details: Prostate, N-cadherin positive
Procedure: as §2, §3

tumor cell lines = test: Microcytoxicity assay, all tumor cell lines tested; assay type: cell-based, human; details: on average over the cell lines of Table 5
From the text: as §1, §2, §4

HT-29 = test: Microcytoxicity assay (SRB), HT-29; assay type: cell-based, human
Procedure: as §3

Chain of topoisomerase II-DNA complex (P15348 whole entry, one chain of several): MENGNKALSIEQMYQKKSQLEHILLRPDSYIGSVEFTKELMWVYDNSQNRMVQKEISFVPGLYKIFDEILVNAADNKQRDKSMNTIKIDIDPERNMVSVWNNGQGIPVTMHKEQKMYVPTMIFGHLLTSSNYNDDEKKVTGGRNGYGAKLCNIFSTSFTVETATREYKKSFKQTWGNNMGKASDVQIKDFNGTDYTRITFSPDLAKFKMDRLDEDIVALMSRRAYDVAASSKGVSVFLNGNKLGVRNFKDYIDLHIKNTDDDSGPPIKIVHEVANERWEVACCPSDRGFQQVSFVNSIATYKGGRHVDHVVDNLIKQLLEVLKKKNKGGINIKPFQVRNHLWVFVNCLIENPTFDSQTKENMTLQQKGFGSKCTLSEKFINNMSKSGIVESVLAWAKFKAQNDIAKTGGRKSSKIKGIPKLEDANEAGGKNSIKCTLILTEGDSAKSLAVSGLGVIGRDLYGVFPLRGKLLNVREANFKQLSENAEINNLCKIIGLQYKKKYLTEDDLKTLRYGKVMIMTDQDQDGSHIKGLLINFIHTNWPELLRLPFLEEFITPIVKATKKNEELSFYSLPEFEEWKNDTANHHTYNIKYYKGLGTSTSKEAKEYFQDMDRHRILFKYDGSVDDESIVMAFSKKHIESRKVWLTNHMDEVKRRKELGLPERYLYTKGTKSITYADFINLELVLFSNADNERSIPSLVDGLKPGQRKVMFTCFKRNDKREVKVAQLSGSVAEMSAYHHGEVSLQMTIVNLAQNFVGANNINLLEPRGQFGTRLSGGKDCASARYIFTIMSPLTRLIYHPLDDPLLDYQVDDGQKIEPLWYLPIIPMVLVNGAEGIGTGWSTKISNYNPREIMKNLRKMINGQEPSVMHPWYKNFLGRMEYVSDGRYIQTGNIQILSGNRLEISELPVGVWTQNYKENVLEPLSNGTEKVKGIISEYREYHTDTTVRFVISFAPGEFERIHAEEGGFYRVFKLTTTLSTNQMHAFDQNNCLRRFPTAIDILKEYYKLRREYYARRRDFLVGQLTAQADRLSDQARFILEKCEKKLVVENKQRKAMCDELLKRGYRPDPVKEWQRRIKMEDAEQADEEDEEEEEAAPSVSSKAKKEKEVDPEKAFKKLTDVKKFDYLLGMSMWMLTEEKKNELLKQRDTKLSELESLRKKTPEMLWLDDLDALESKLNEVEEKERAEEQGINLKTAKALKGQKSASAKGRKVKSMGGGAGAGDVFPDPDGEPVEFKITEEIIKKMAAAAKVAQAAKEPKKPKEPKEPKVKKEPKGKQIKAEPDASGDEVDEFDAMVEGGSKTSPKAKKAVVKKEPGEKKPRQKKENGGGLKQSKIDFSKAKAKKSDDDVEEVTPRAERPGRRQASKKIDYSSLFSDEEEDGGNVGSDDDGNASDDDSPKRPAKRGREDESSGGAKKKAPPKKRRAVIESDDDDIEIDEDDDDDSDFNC
Chain of topoisomerase II (P15348 whole entry): as the sequence (P15348 whole entry, one chain of several) above

(±)-(2′R,3′S) (2′S,3′R) psorospermin methyl ether [Compound B]
In vitro cytotoxic potency (MCF7 (breast)): 0.74 µg/mL
In vitro cytotoxic potency (SW480 (colon)): 0.36 µg/mL
In vitro cytotoxic potency (MiaPaCa-2 (pancreatic)): 0.48 µg/mL
In vitro cytotoxic potency (8226 (myeloma)): 0.33 µg/mL
In vitro cytotoxic potency [1]: 0.30 µg/mL
sensitivity of HL-60 ([2]; HL-60, positive for c-myc and BCL-2): highly sensitive

COc1cc2c(c3oc4c(O)cccc4c(=O)c13)C[C@H]([C@@]1(C)CO1)O2 [psorospermin]
topoisomerase II-mediated DNA cleavage at site A (topoisomerase II; site A, as the concentration of psorospermin was increased): decreased
psorospermin-induced DNA cleavage by topoisomerase II, maximum (topoisomerase II; site B, 10 μM drug concentration): 3 fold
enhancement of psorospermin alkylation at site A ([3]; site A): 3 fold
enhancement of the psorospermin alkylation at site B ([3]; site B): 25 fold
activity in vivo against P388 mouse leukemia (P388 mouse leukemia): significant activity
activity in vitro against various tumor cell lines (various tumor cell lines): significant activity

COc1c2c(c3oc4ccccc4c(=O)c3c1OC)CC([C@@]1(C)CO1)O2 (mixture of isomers) [Compound A, (±)-(2′R,3′R) (2′S,3′S) psorospermin methyl ether]
In vitro cytotoxic potency (MCF7 (breast)): 0.28 µg/mL
IC50 (MCF7 (breast); Breast, adenocarcinoma): 610 nM
In vitro cytotoxic potency (SW480 (colon)): 0.24 µg/mL
IC50 (MiaPaCa-2 (pancreatic); MIA PaCa-2, pancreas, read-out: IC50 Values): 180 nM
activity in the pancreatic cell line MiaPaCa (MiaPaCa-2 (pancreatic); MiaPaCa): remarkable activity
In vitro cytotoxic potency (MiaPaCa-2 (pancreatic)): 0.26 µg/mL
activity in MiaPaCa compared with gemcytabine (MiaPaCa-2 (pancreatic); MiaPaCa, versus gemcytabine): as good or better
In vitro cytotoxic potency (8226 (myeloma)): 0.21 µg/mL
In vitro cytotoxic potency [1]: 0.06 µg/mL
In vitro cytotoxic potency [4]: 0.062 µg/mL
IC50 ([2]; HL60, origin printed: promyelocytic leukemia): 36 nM
In vitro cytotoxic potency ([2]; HL-60, 4 days, SRB): 0.026 µg/mL
IC50 [5]: 12 nM
IC50 [6]: 11 nM
IC50 (K562): 36 nM
IC50 [7]: 24 nM
IC50 (A2780): 63 nM
IC50 [8]: 473 nM
IC50 (MCF 10A): 5350 nM
IC50 (DU 145; DU 145, Prostate, brain mets, read-out: IC50 Values): 304 nM
IC50 (LnCAP): 460 nM
IC50 (PEAZ-1): 160 nM
IC50 (PC-3): 280 nM
IC50 (PC-3N): 130 nM
effectiveness relative to Compound B (tumor cell lines): more potent; also recorded: twice as effective

(2R,3S)-psorospermin methyl ether [Compound 117]
IC50 (MiaPaCa-2 (pancreatic); MiaPaCa, read-out: IC50): 400 nM
IC50 (DU 145; DU-145, read-out: IC50): 400 nM
IC50 (HT-29): 700 nM

(2S,3R)-psorospermin methyl ether [Compound 116]
IC50 (MiaPaCa-2 (pancreatic); MiaPaCa, read-out: IC50): 4000 nM
IC50 (DU 145; DU-145, read-out: IC50): 4000 nM
IC50 (HT-29): 7000 nM
